Laboratory results reported in patent US12679824B2 (Hoffmann-La Roche Inc., priority 2020, dated 2026).

tested on: Acinetobacter baumannii ATCC17961; assay: 90% Growth Inhibitory Concentration (IC90) determination, antimicrobial susceptibility testing; type: cell-based; conditions: Acinetobacter baumannii, ATCC17961, 16 h, Acinetobacter baumannii ATCC17961; Iso-Sensitest broth; growth by optical density at 600 nm over 16h; concentration inhibiting 90% of the growth; read-out: ATCC 17961 IC90
Procedure, shortened: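 Broth microdilution in Iso-Sensitest medium, compounds twofold diluted (e.g. 50–0.097 μM final), inoculum ~5×10^(5) CFU/ml, 35±2° C. OD600 was read every 20 min over 16 h. IC90 was derived from growth inhibition during logarithmic growth.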

| SMILES | IC90 |
| --- | --- |
| COc1ccc(-n2cc(-c3cnc(C(=O)Nc4ccc(C(=O)N5CCN(C(=O)C6CCNCC6)CC5)c(Cl)c4)n3C)c(C(F)(F)F)n2)nc1 [Example A13, N-[3-chloro-4-[4-(piperidine-4-carbonyl)piperazine-1-carbonyl]phenyl]-5-[1-(5-methoxy-2-pyridyl)-3-(trifluoromethyl)pyrazol-4-yl]-1-methyl-imidazole-2-carboxamide] | 210 nM |
| COCCNc1ccc(-n2cc(-c3cnc(C(=O)Nc4ccc(C(=O)N5CCN(C(=O)C6CCNCC6)CC5)c(Cl)c4)n3C)c(C(F)(F)F)n2)nc1 [Example C2, N-[3-chloro-4-[4-(piperidine-4-carbonyl)piperazine-1-carbonyl]phenyl]-5-[1-[5-(2-methoxyethylamino)-2-pyridyl]-3-(trifluoromethyl)pyrazol-4-yl]-1-methyl-imidazole-2-carboxamide] | 340 nM |
| CN1CCC(C(=O)N2CCN(C(=O)c3ccc(NC(=O)c4ncc(-c5cn(-c6ccc(N)cn6)nc5C(F)F)n4C)cc3Cl)CC2)CC1 [Example C9, 5-[1-(5-amino-2-pyridyl)-3-(difluoromethyl)pyrazol-4-yl]-N-[3-chloro-4-[4-(1-methylpiperidine-4-carbonyl)piperazine-1-carbonyl]phenyl]-1-methyl-imidazole-2-carboxamide] | 420 nM |
| Cn1c(-c2cn(-c3ccc(N)cn3)nc2C(F)(F)F)cnc1C(=O)Nc1ccc(C(=O)N2CCN(C(=O)C3(O)CCNCC3)CC2)c(Cl)c1 [Example C4, 5-[1-(5-amino-2-pyridyl)-3-(trifluoromethyl)pyrazol-4-yl]-N-[3-chloro-4-[4-(4-hydroxypiperidine-4-carbonyl)piperazine-1-carbonyl]phenyl]-1-methyl-imidazole-2-carboxamide] | 310 nM |
| Cn1c(-c2cn(-c3nccc(OCCN)n3)nc2C(F)(F)F)cnc1C(=O)Nc1ccc(C(=O)N2CCN(C(=O)C3CCNCC3)CC2)c(Cl)c1 [Example A14, 5-[1-[4-(2-aminoethoxy)pyrimidin-2-yl]-3-(trifluoromethyl)pyrazol-4-yl]-N-[3-chloro-4-[4-(piperidine-4-carbonyl)piperazine-1-carbonyl]phenyl]-1-methyl-imidazole-2-carboxamide] | 2200 nM |
| Cn1c(-c2cn(-c3ncc4cn[nH]c4n3)nc2C(F)(F)F)cnc1C(=O)Nc1ccc(C(=O)N2CCN(C(=O)C3CCNCC3)CC2)c(Cl)c1 [Example A9, N-[3-chloro-4-[4-(piperidine-4-carbonyl)piperazine-1-carbonyl]phenyl]-1-methyl-5-[1-(1h-pyrazolo[3,4-d]pyrimidin-6-yl)-3-(trifluoromethyl)pyrazol-4-yl]imidazole-2-carboxamide] | 510 nM |

The remaining lines, values ahead:

| IC90 | SMILES |
| --- | --- |
| 310 nM | COc1ccc(-n2cc(-c3cnc(C(=O)Nc4ccc(C(=O)N5CCN(C(=O)[C@@H]6CCNC[C@H]6O)CC5)c(Cl)c4)n3C)c(C(F)(F)F)n2)nc1 [Example F4, N-[3-chloro-4-[4-[(3S,4R)-3-hydroxypiperidine-4-carbonyl]piperazine-1-carbonyl]phenyl]-5-[1-(5-methoxy-2-pyridyl)-3-(trifluoromethyl)pyrazol-4-yl]-1-methyl-imidazole-2-carboxamide] |
| 930 nM | Cn1c(-c2cn(-c3ccc(N)cn3)nc2C(F)(F)F)cnc1C(=O)Nc1ccc(C(=O)N2CC3CNCC3C2)c(Cl)c1 (centres unmarked) [Example Z12, N-[4-(2,3,3a,4,6,6a-hexahydro-1H-pyrrolo[3,4-c]pyrrole-5-carbonyl)-3-chloro-phenyl]-5-[1-(5-amino-2-pyridyl)-3-(trifluoromethyl)pyrazol-4-yl]-1-methyl-imidazole-2-carboxamide] |
| 850 nM | Cn1c(-c2cn(-c3ccc(N)cn3)nc2C(F)(F)F)cnc1C(=O)Nc1ccc(C(=O)N2CCC(CN)CC2)c(Cl)c1 [Example Z14, N-[4-[4-(aminomethyl)piperidine-1-carbonyl]-3-chloro-phenyl]-5-[1-(5-amino-2-pyridyl)-3-(trifluoromethyl)pyrazol-4-yl]-1-methyl-imidazole-2-carboxamide] |
| 840 nM | COc1cc(-n2cc(-c3cnc(C(=O)Nc4ccc(C(=O)N5CCN(C(=O)C6CCNCC6)CC5)c(Cl)c4)n3C)c(C(F)(F)F)n2)ncn1 [Example Z49, N-[3-chloro-4-(4-isonipecotoylpiperazine-1-carbonyl)phenyl]-5-[1-(6-methoxypyrimidin-4-yl)-3-(trifluoromethyl)pyrazol-4-yl]-1-methyl-imidazole-2-carboxamide] |
| 280 nM | CNc1ccc(-n2cc(-c3cnc(C(=O)Nc4ccc(C(=O)N5CCN(C(=O)[C@@H]6C[C@@H](O)CN6)CC5)c(Cl)c4)n3C)c(C(F)(F)F)n2)nc1 [Example D7, N-[3-chloro-4-[4-[(2S,4R)-4-hydroxypyrrolidine-2-carbonyl]piperazine-1-carbonyl]phenyl]-1-methyl-5-[1-[5-(methylamino)-2-pyridyl]-3-(trifluoromethyl)pyrazol-4-yl]imidazole-2-carboxamide] |
| 400 nM | C[C@H]1CNCCN1C(=O)c1ccc(NC(=O)c2ncc(-c3cn(-c4ccc(N)cn4)nc3C(F)(F)F)n2C)cc1Cl [Example Z56, 5-[1-(5-amino-2-pyridyl)-3-(trifluoromethyl)pyrazol-4-yl]-N-[3-chloro-4-[(2S)-2-methylpiperazine-1-carbonyl]phenyl]-1-methyl-imidazole-2-carboxamide] |
| 1220 nM | Cn1c(-c2cn(-c3ccc(N)cn3)nc2C(F)(F)F)cnc1C(=O)Nc1ccc(C(=O)NCCNC(=O)[C@@H]2C[C@@H](O)CN2)c(Cl)c1 [Example Z33, 5-[1-(5-amino-2-pyridyl)-3-(trifluoromethyl)pyrazol-4-yl]-N-[3-chloro-4-[2-[[(2S,4R)-4-hydroxyprolyl]amino]ethylcarbamoyl]phenyl]-1-methyl-imidazole-2-carboxamide] |
| 410 nM | Cc1cc(-n2cc(-c3cnc(C(=O)Nc4ccc(C(=O)N5CCN(C(=O)C6CCNCC6)CC5)c(Cl)c4)n3C)c(C(F)(F)F)n2)cnc1N [Example Z77, 5-[1-(6-amino-5-methyl-3-pyridyl)-3-(trifluoromethyl)pyrazol-4-yl]-N-[3-chloro-4-[4-(piperidine-4-carbonyl)piperazine-1-carbonyl]phenyl]-1-methyl-imidazole-2-carboxamide] |
| 980 nM | Cn1c(-c2cn(-c3ccc(N)cn3)nc2C(F)(F)F)cnc1C(=O)Nc1ccc(C(=O)NCCCN)c(Cl)c1 [Example Z2, N-[4-(3-aminopropylcarbamoyl)-3-chloro-phenyl]-5-[1-(5-amino-2-pyridyl)-3-(trifluoromethyl)pyrazol-4-yl]-1-methyl-imidazole-2-carboxamide] |
| 670 nM | Cn1c(-c2cn(-c3ccc(N)cn3)nc2C(F)(F)F)cnc1C(=O)Nc1ccc(C(=O)NCCOCCN)c(Cl)c1 [Example Z21, N-[4-[2-(2-aminoethoxy)ethylcarbamoyl]-3-chloro-phenyl]-5-[1-(5-amino-2-pyridyl)-3-(trifluoromethyl)pyrazol-4-yl]-1-methyl-imidazole-2-carboxamide] |
| 230 nM | Cn1c(-c2cn(-c3ccc(N)nc3F)nc2C(F)(F)F)cnc1C(=O)Nc1ccc(C(=O)N2CCN(C(=O)C3CCNCC3)CC2)c(Cl)c1 [Example Z84, 5-[1-(6-amino-2-fluoro-3-pyridyl)-3-(trifluoromethyl)pyrazol-4-yl]-N-[3-chloro-4-[4-(piperidine-4-carbonyl)piperazine-1-carbonyl]phenyl]-1-methyl-imidazole-2-carboxamide] |
| 540 nM | Cn1c(-c2cn(-c3ccc(N)cn3)nc2C(F)(F)F)cnc1C(=O)Nc1ccc(C(=O)N2CC3(CC(NC(=O)[C@@H]4C[C@@H](O)CN4)C3)C2)c(Cl)c1 [Example Z25, 5-[1-(5-amino-2-pyridyl)-3-(trifluoromethyl)pyrazol-4-yl]-N-[3-chloro-4-[6-[[(2S,4R)-4-hydroxyprolyl]amino]-2-azaspiro[3.3]heptane-2-carbonyl]phenyl]-1-methyl-imidazole-2-carboxamide] |
| 560 nM | CC(C)[C@H]1CN(C(=O)c2ccc(NC(=O)c3ncc(-c4cn(-c5ccc(N)cn5)nc4C(F)(F)F)n3C)cc2Cl)CCN1 [Example Z58, 5-[1-(5-amino-2-pyridyl)-3-(trifluoromethyl)pyrazol-4-yl]-N-[3-chloro-4-[(3S)-3-isopropylpiperazine-1-carbonyl]phenyl]-1-methyl-imidazole-2-carboxamide] |
| 500 nM | Cn1c(-c2cn(-c3ccc(N)cn3)nc2C(F)(F)F)cnc1C(=O)Nc1ccc(C(=O)NCC2CCNCC2)c(Cl)c1 [Example Z3, 5-[1-(5-amino-2-pyridyl)-3-(trifluoromethyl)pyrazol-4-yl]-N-[3-chloro-4-(4-piperidylmethylcarbamoyl)phenyl]-1-methyl-imidazole-2-carboxamide] |

same assay, conditions: Acinetobacter baumannii, ATCC17961, 16 h, read-out: ATCC 17961 IC90

| SMILES | IC90 |
| --- | --- |
| Cn1c(-c2cn(-c3ncccn3)nc2C(F)(F)F)cnc1C(=O)Nc1ccc(C(=O)N2CCN(C(=O)C3CCNCC3)CC2)c(Cl)c1 [Example A1, N-[3-Chloro-4-[4-(piperidine-4-carbonyl)piperazine-1-carbonyl]phenyl]-1-methyl-5-[1-pyrimidin-2-yl-3-(trifluoromethyl)pyrazol-4-yl]imidazole-2-carboxamide] | 690 nM |
| Cn1c(-c2cn(-c3ncccn3)nc2C(F)(F)F)cnc1C(=O)Nc1ccc(C(=O)N2CCN(C(=O)[C@H]3[C@@H]4CNC[C@@H]43)CC2)c(Cl)c1 [Example F1, N-[4-[4-[(1R,5S)-3-Azabicyclo[3.1.0]hexane-6-carbonyl]piperazine-1-carbonyl]-3-chloro-phenyl]-1-methyl-5-[1-pyrimidin-2-yl-3-(trifluoromethyl)pyrazol-4-yl]imidazole-2-carboxamide] | 450 nM |
| Cn1c(-c2cn(-c3ccc(N)c(F)n3)nc2C(F)(F)F)cnc1C(=O)Nc1ccc(C(=O)N2CCN(C(=O)C3CCNCC3)CC2)c(Cl)c1 [Example Z72, 5-[1-(5-amino-6-fluoro-2-pyridyl)-3-(trifluoromethyl)pyrazol-4-yl]-N-[3-chloro-4-[4-(piperidine-4-carbonyl)piperazine-1-carbonyl]phenyl]-1-methyl-imidazole-2-carboxamide] | 250 nM |
